Reference: ChEMBL document CHEMBL3108682, “Piperazine oxadiazole inhibitors of acetyl-CoA carboxylase” (J Med Chem, 2013)

Experiments:
Assay type in all cases: ADME, organism-based
Plasma [1] = assay: Fraction unbound in C57BL6 mouse plasma at 35 mg/kg, po; parameters: dose 35 mg/kg, route oral; details: in vivo
Plasma [2] = assay: Fraction unbound in C57BL6 mouse plasma at 15 mg/kg, po; parameters: dose 15 mg/kg, route oral; details: in vivo
Plasma [3] = assay: Fraction unbound in C57BL6 mouse plasma at 25 mg/kg, po after 8 hrs; parameters: dose 25 mg/kg, route oral; details: in vivo
Plasma [4] = assay: Fraction unbound in C57BL6 mouse plasma at 25 mg/kg, po after 12 hrs; parameters: dose 25 mg/kg, route oral; details: in vivo
Plasma [5] = assay: Fraction unbound in C57BL6 mouse plasma at 25 mg/kg, po after 4 hrs; parameters: dose 25 mg/kg, route oral; details: in vivo
Plasma [6] = assay: Fraction unbound in C57BL6 mouse plasma at 100 mg/kg, po; parameters: dose 100 mg/kg, route oral; details: in vivo
Plasma [7] = assay: Fraction unbound in C57BL6 mouse plasma at 25 mg/kg, po after 1 hr; parameters: dose 25 mg/kg, route oral; details: in vivo
Plasma [8] = assay: Fraction unbound in C57BL6 mouse plasma at 25 mg/kg, po; parameters: dose 25 mg/kg, route oral; details: in vivo
Plasma [9] = assay: Fraction unbound in C57BL6 mouse plasma at 50 mg/kg, po; parameters: dose 50 mg/kg, route oral; details: in vivo
[10] = Oral bioavailability in C57BL6 mouse at 5 mg/kg; details: in vivo
[11] = Cmax in C57BL6 mouse at 5 mg/kg, po; parameters: dose 5 mg/kg, route oral; details: in vivo
[12] = Volume of distribution at steady state in C57BL6 mouse at 2 mg/kg, iv; parameters: dose 2 mg/kg, route intravenous; details: in vivo, read-out: Vdss
[13] = Oral bioavailability in Sprague-Dawley rat at 5 mg/kg; details: in vivo
[14] = Cmax in Sprague-Dawley rat at 5 mg/kg, po; parameters: dose 5 mg/kg, route oral; details: in vivo
[15] = Volume of distribution at steady state in Sprague-Dawley rat at 2 mg/kg, iv; parameters: dose 2 mg/kg, route intravenous; details: in vivo, read-out: Vdss
[16] = AUC (0 to 24 hrs) in Sprague-Dawley rat at 5 mg/kg, po; parameters: time < 24 hr, dose 5 mg/kg, route oral; details: plasma

Row | SMILES | Cp(f) (Plasma [1]) [nM] | Cp(f) (Plasma [2]) [nM] | Cp(f) (Plasma [3]) [nM] | Cp(f) (Plasma [4]) [nM] | Cp(f) (Plasma [5]) [nM] | Cp(f) (Plasma [6]) [nM] | Cp(f) (Plasma [7]) [nM] | Cp(f) (Plasma [8]) [nM] | Cp(f) (Plasma [9]) [nM] | bioavailability [10] [%] | Cmax [11] [nM] | Vd [12] [L/kg] | bioavailability [13] [%] | Cmax [14] [nM] | Vd [15] [L/kg] | AUC(0-t) at 24 h [16] [ng·h/mL]
1 | CCOc1ccc(N2CCN(c3noc(C4(NC(C)=O)CCC4)n3)[C@@H](C)C2)c(C)c1 | 618 | 95 | 882 | 498 | 1142 | 1482 | 1165 | 708 | 988 | 46 | 5800 | 0.98 | 34 | 1200 | 1.8 | 
2 | CCOc1ccc(N2CCN(c3noc(CC)n3)[C@@H](C)C2)c(C)c1 |  |  |  |  |  |  |  |  |  |  |  |  | 17 | 380 | 12.8 | 291
